{"source": "patent US6855505B2", "about": "“Method for quantifying TGF-β” (Renovo Limited, priority 1998, dated 2005)", "key": {"active TGF-β": {"system": "active TGF-β", "experiment": "Active TGF-β in wound cryosections, modified PAI/L assay", "format": "in vivo, rat", "conditions": "for level of active TGF-β in treated wounds compared to controls: 100 μM kistrin; for level of active TGF-β in treated wounds compared with PBS controls: M6P 100 mM, 100 μl/wound/day", "description": "(§1) Adult male Sprague-Dawley rats (Charles River UK Ltd, Kent, UK) weighing 225-250 g were anaesthetised by inhalation of halothane, nitrous oxide, and oxygen. The back of the rats was shaved, and four full-thickness linear incisions of 1 cm length, including the panniculus carnosus, were made on the back of the animals using a scalpel as described in Shah et al., “Control of scarring in adult wounds by neutralising antibody to transforming growth factor β, Lancet. 339: 213-214, 1992. The wounds were left unsutured to heal by secondary intention. The animals were allowed to recover, housed separately, and fed ad libitum until the wounds were harvested. The animals were killed by chloroform overdose at 1 hour, 6 hour, or 1, 2, 3, 4, 5, 7, 10 and 14 days post-wounding. The wounds were harvested and processed as described below. All animal experiments were carried out under appropriate licences according to UK Home Office regulations.\n(§2) The wound area was swabbed with 70% ethanol. The wounds were carefully dissected from surrounding tissue and subsequently embedded in 8% sterile methyl cellulose (Sigma, Dorset, UK) and snap frozen in liquid nitrogen. Four wounds from each animal were embedded in one block of methyl cellulose. Four tissue samples of equivalent size representing surrounding tissue adjacent to the wound were also excised and processed as described above. Normal skin from the back of non-wounded rats was used as a control. The embedded tissue samples were stored at −80° C. for a maximum of 3 months. Thick cryosections (20 μm) were cut and placed on sterilised 13-mm round coverslips and analysed in duplicate. The coverslips, each carrying 4 cryosections of the wound, were placed into a 24-well cell culture plate and temporarily stored at −20° C. until transferred onto mink lung epithelial cells (MLECs).\nReferring to FIG. 1, the original PAI/L assay for the quantification of TGF-β in liquid samples was modified in order to measure active/latent TGF-β levels in a tissue section of a wound site to provide an indication of the levels at the wound site in vivo. As shown in FIG. 1A MLECs (10) were plated for 4 h into 24-well plates. one well (12) being represented in FIG. 1A (3×10^5/ml, 500 μl/well) in complete DMEM and incubated for 4 hours at 37° C. Then, serum-containing medium was replaced with 500 μl of DMEM containing 0.1% pyrogen-poor BSA (from Pierce, Rockford, Ill., USA), aprotinin (1 μg/ml) (from Sigma, Dorset, UK) penicillin (100 U/ml) and streptomyciln (100 μg/ml), designated DMEM-BSA medium (14). The coverslips (16) carrying cryosections (18) were placed upside down onto the MLECs (10) in the 24-well plates.\nThese serial dilutions were added to the MLECs (10) together with methyl-cellulose coated coverslips (16).\nBoth samples and TGF-β standards were incubated with the MLECs (10) overnight at 37° C. MLECs (10) were then washed with phosphate buffered saline (PBS) and lysed with 200 μl of luciferase cell lysis buffer (from Analytical Luminescence Laboratory, Ann Arbor, USA) for 20 minutes at room temperature. Forty-five microliters of the lysates was transferred in triplicate to a Microlite 96-well plate (Dynatech Laboratories Inc. Chantilly, Va., USA). Luciferase activity in the lysates was determined using an MLX Microtiter Plate Luminometer (Dynex Technologies, Chantilly, Va., USA).\n(§3) 20 animals each received 4 wounds which were subsequently treated with M6P (100 mM, 100 μl/wound/day). Animals were killed at 1 and 6 hours and 1, 3, 5, 7, 10 and 14 days post wounding. The wounds were dissected and embedded in methyl cellulose, then snap frozen. The tissue samples were subsequently prepared for use in the modified PAI-1/L assay.\nBriefly, rat incisional wounds were treated with 1 mM monodansylcadaverine (MDC), a potent inhibitor of Transglutaminase activity. The wounds were prepared and assayed as described previously. […]"}, "rat incisional wounds [1]": {"system": "rat incisional wounds", "experiment": "Scarring in rat incisional wound model", "format": "in vivo", "description": "as §1\nBriefly, rat incisional wounds were treated with 1 mM monodansylcadaverine (MDC), a potent inhibitor of Transglutaminase activity. The wounds were prepared and assayed as described previously.\n(§4) Briefly, rat incisional wounds were treated with 100 μM kistrin, then prepared and assayed as described previously."}, "total TGF-β": {"system": "total TGF-β", "experiment": "Total TGF-β (active plus latent) in heat-activated wound cryosections, PAI/L assay", "format": "in vivo, rat", "conditions": "for level of total TGF-β in treated wounds compared to controls: 100 μM kistrin; for level of total TGF-β in treated wounds compared with control wounds: M6P 100 mM, 100 μl/wound/day", "description": "as §1, §2\nIn order to measure total TGF-β (active plus latent) in the wound tissue samples, the coverslips carrying the cryosections were submerged in 500 μl of DMEM-BSA medium in a sterile glass embryo dish (BDH, Merck, Leics., UK) and incubated for 20 minutes at 80° C. in order to heat activate latent TGF-β. Following heat activation, the coverslips were transferred, together with the medium, onto MLECs for TGF-β quantification in the PAI/L assay according to Example 1. Similar results were obtained in three separate experiments.\nas §3, §4"}, "latent TGF-β": {"system": "latent TGF-β", "experiment": "Latent TGF-β in wound sections", "format": "in vivo, rat", "conditions": "100 μM kistrin; 1 hour post wounding", "procedure": "as §4"}, "rat incisional wounds [2]": {"system": "rat incisional wounds", "conditions": "application into rat dermal wounds; earlier studies; cited from earlier work"}, "[3]": {"conditions": "rat incisional wounds treated with 1 mM MDC"}}}
{"compound": "CN(C)c1cccc2c(S(=O)(=O)NCCCCCN)cccc12", "note": "[MDC, monodansylcadaverine]", "values": [{"measurement": "early TGF-β levels", "setting": "active TGF-β; [3]", "result": "reduces early TGF-β levels"}, {"measurement": "TGF-β activation in vivo", "setting": "active TGF-β; rat incisional wounds treated with 1 mM MDC, FIG. 8", "result": "inhibits TGF-β activation in vivo"}, {"measurement": "scarring", "setting": "rat incisional wounds [1]; [3]", "result": "improves scarring"}]}
{"compound": "kistrin", "values": [{"measurement": "level of active TGF-β in treated wounds compared to controls", "setting": "active TGF-β; 1 hour post wounding", "result": "increased"}, {"measurement": "level of active TGF-β in treated wounds compared to controls", "setting": "active TGF-β; 5 days post wounding", "result": "no differences"}, {"measurement": "level of total TGF-β in treated wounds compared to controls", "setting": "total TGF-β; 1 hour post wounding", "result": "increased"}, {"measurement": "level of total TGF-β in treated wounds compared to controls", "setting": "total TGF-β; 5 days post wounding", "result": "no differences"}, {"measurement": "amount of latent TGF-β compared to controls", "setting": "latent TGF-β", "result": "no difference"}, {"measurement": "antiscarring effect", "setting": "rat incisional wounds [1]; kistrin treated rat incisional wounds", "result": "no antiscarring effect"}]}
{"compound": "O=C[C@@H](O)[C@@H](O)[C@H](O)[C@H](O)COP(=O)(O)O", "note": "[M6P, mannose-6-phosphate]", "values": [{"measurement": "level of active TGF-β in treated wounds compared with PBS controls", "setting": "active TGF-β; 1 hour post wounding", "result": "less"}, {"measurement": "level of active TGF-β in treated wounds compared with PBS controls", "setting": "active TGF-β; 6 hours post wounding", "result": "less"}, {"measurement": "level of active TGF-β in treated wounds compared with PBS controls", "setting": "active TGF-β; 10 days post wounding", "result": "more active TGF-β than controls"}, {"measurement": "level of active TGF-β in treated wounds compared with PBS controls", "setting": "active TGF-β; after 6 hours until 10 days post wounding", "result": "comparable"}, {"measurement": "reduction of levels of active TGF-β in vivo (overall conclusion)", "setting": "active TGF-β; M6P treated rat wounds, early stages of wound repair", "result": "effective in reducing the levels of active TGF-β in vivo"}, {"measurement": "level of total TGF-β in treated wounds compared with control wounds", "setting": "total TGF-β; 6 hours post wounding", "result": "higher than controls"}, {"measurement": "level of total TGF-β in treated wounds compared with control wounds", "setting": "total TGF-β; 5 days post wounding", "result": "higher than controls"}, {"measurement": "level of total TGF-β in treated wounds compared with control wounds", "setting": "total TGF-β; 7 days post wounding", "result": "less than controls"}, {"measurement": "level of total TGF-β in treated wounds compared with control wounds", "setting": "total TGF-β; 10 days post wounding", "result": "higher than controls"}, {"measurement": "scarring", "setting": "rat incisional wounds [1]; local administration of M6P, rat incisional wound model, previously demonstrated by the applicant", "result": "significantly reduces scarring"}, {"measurement": "quality of scarring", "setting": "rat incisional wounds [2]", "result": "improve the quality of scarring"}]}
